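Test compounds were applied to cells in 96-well plates for 48 hours at 5 doses. At the GI50, growth is halved.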 The source made the active and inactive calls. Cut-off read from the data, not from the text of the source: active = GI50 up to about 1.1 µM and inactive = higher.
Experiments:
Assay in all cases: DTP human tumour cell line panel, 48 h
MOLT-4 = test system: MOLT-4
MDA-MB-435 = test system: MDA-MB-435
ACHN = test system: ACHN
HOP-62 = test system: HOP-62
Malme-3M = test system: Malme-3M
SK-MEL-28 = test system: SK-MEL-28
OVCAR-4 = test system: OVCAR-4
HOP-92 = test system: HOP-92
OVCAR-5 = test system: OVCAR-5
UACC-62 = test system: UACC-62
Hs-578T = test system: Hs-578T
HT-29 = test system: HT-29
T47D = test system: T47D
MCF7 = test system: MCF7
MDA-MB-231 = test system: MDA-MB-231
RXF 393 = test system: RXF 393
NCI-H226 = test system: NCI-H226
NCI-H460 = test system: NCI-H460
M14 = test system: M14
TK-10 = test system: TK-10
KM12 = test system: KM12
SF-539 = test system: SF-539
SNB-75 = test system: SNB-75
UO-31 = test system: UO-31
786-0 = test system: 786-0
RPMI-8226 = test system: RPMI-8226
U-251 = test system: U-251
IGROV-1 = test system: IGROV-1
SF-268 = test system: SF-268
NCI/ADR-RES = test system: NCI/ADR-RES
SNB-19 = test system: SNB-19
A498 = test system: A498
SK-OV-3 = test system: SK-OV-3
PC-3 = test system: PC-3
EKVX = test system: EKVX
A549 = test system: A549
NCI-H23 = test system: NCI-H23
NCI-H522 = test system: NCI-H522
COLO 205 = test system: COLO 205
BT-549 = test system: BT-549
HCT-15 = test system: HCT-15
SF-295 = test system: SF-295
SK-MEL-5 = test system: SK-MEL-5
DU-145 = test system: DU-145
LOX IMVI = test system: LOX IMVI
HCT-116 = test system: HCT-116
CAKI-1 = test system: CAKI-1
SK-MEL-2 = test system: SK-MEL-2
CCRF-CEM = test system: CCRF-CEM
K562 = test system: K562
OVCAR-3 = test system: OVCAR-3
OVCAR-8 = test system: OVCAR-8
UACC-257 = test system: UACC-257
SW-620 = test system: SW-620
MDA-N = test system: MDA-N
SR = test system: SR
HL-60 = test system: HL-60
SN12C = test system: SN12C

Measured: GI50

O=C1N/C(=N/N=C/c2ccccc2)N/C1=C\c1cccs1
17.9 µM: HCT-15
inactive: MOLT-4 27.5 µM | MDA-MB-435 7.52 µM | ACHN 15.9 µM | HOP-62 18.3 µM | Malme-3M 8.99 µM | SK-MEL-28 15.8 µM | OVCAR-4 22.3 µM | HOP-92 15.8 µM | OVCAR-5 28.6 µM | UACC-62 20.1 µM | Hs-578T 2.77 µM | HT-29 19.1 µM | T47D 28.2 µM | MCF7 9.84 µM | MDA-MB-231 18.6 µM | RXF 393 17.7 µM | NCI-H226 10.6 µM | NCI-H460 31.8 µM | M14 29.3 µM | TK-10 23.1 µM | KM12 18.4 µM | SF-539 10.4 µM | SNB-75 22 µM | UO-31 21.8 µM | 786-0 18.5 µM | RPMI-8226 16.8 µM | U-251 15.6 µM | IGROV-1 14.5 µM | SF-268 9.89 µM | NCI/ADR-RES 15.2 µM | SNB-19 21.9 µM | A498 13 µM | SK-OV-3 18.6 µM | PC-3 10 µM | EKVX 21.5 µM | A549 25.6 µM | NCI-H23 15.9 µM | NCI-H522 1.98 µM | COLO 205 8.13 µM | BT-549 15.2 µM | SF-295 17.4 µM | SK-MEL-5 7.53 µM | DU-145 18.5 µM | LOX IMVI 8.34 µM | HCT-116 17.3 µM | CAKI-1 16.7 µM | SK-MEL-2 8.57 µM | CCRF-CEM 13.3 µM | K562 12.2 µM | OVCAR-3 15.4 µM | OVCAR-8 13 µM | UACC-257 30.5 µM | SW-620 11.7 µM | MDA-N 8.32 µM | SR 28.2 µM | HL-60 12.3 µM | SN12C 19.1 µM

Cc1ncc(C/N=C/c2ccc(Cl)cc2)c(N)n1
inactive: MOLT-4 > 100 µM | MDA-MB-435 > 100 µM | ACHN > 100 µM | HOP-62 > 100 µM | Malme-3M > 100 µM | SK-MEL-28 > 100 µM | OVCAR-4 > 100 µM | HOP-92 > 100 µM | OVCAR-5 > 100 µM | UACC-62 > 100 µM | Hs-578T > 100 µM | HT-29 > 100 µM | T47D > 100 µM | MCF7 > 100 µM | MDA-MB-231 > 100 µM | RXF 393 > 100 µM | NCI-H226 > 100 µM | NCI-H460 > 100 µM | M14 > 100 µM | TK-10 > 100 µM | KM12 > 100 µM | SF-539 > 100 µM | SNB-75 > 100 µM | UO-31 > 100 µM | 786-0 > 100 µM | RPMI-8226 > 100 µM | U-251 > 100 µM | IGROV-1 > 100 µM | SF-268 > 100 µM | NCI/ADR-RES > 100 µM | SNB-19 > 100 µM | A498 > 100 µM | SK-OV-3 > 100 µM | PC-3 > 100 µM | EKVX > 100 µM | A549 > 100 µM | NCI-H23 > 100 µM | NCI-H522 > 100 µM | COLO 205 > 100 µM | BT-549 > 100 µM | SF-295 > 100 µM | SK-MEL-5 > 100 µM | DU-145 > 100 µM | LOX IMVI > 100 µM | HCT-116 > 100 µM | CAKI-1 > 100 µM | SK-MEL-2 > 100 µM | CCRF-CEM > 100 µM | K562 > 100 µM | OVCAR-3 > 100 µM | OVCAR-8 > 100 µM | UACC-257 > 100 µM | SW-620 > 100 µM | MDA-N > 100 µM | SR > 100 µM | HL-60 > 100 µM | SN12C > 100 µM
> 100 µM: HCT-15

Cc1cc2cc3cc(C)c(N)cc3nc2cc1N [ACRIDINE YELLOW]
inactive: MDA-MB-435 4.4 µM | Malme-3M 1.26 µM | SK-MEL-28 1.51 µM | Hs-578T 1.75 µM | RXF 393 1.15 µM | M14 3.53 µM | SNB-75 1.53 µM | NCI/ADR-RES 2.13 µM | SK-OV-3 1.34 µM | BT-549 5.52 µM | SK-MEL-5 2.27 µM | SK-MEL-2 3.88 µM | UACC-257 3.85 µM | MDA-N 1.57 µM
active: MOLT-4 0.237 µM | ACHN 0.365 µM | HOP-62 0.465 µM | OVCAR-4 0.566 µM | HOP-92 0.726 µM | OVCAR-5 0.798 µM | UACC-62 0.942 µM | HT-29 0.359 µM | T47D 0.865 µM | MCF7 0.475 µM | MDA-MB-231 0.211 µM | NCI-H226 0.869 µM | NCI-H460 0.358 µM | TK-10 0.635 µM | KM12 0.508 µM | SF-539 1.01 µM | UO-31 0.979 µM | 786-0 0.416 µM | RPMI-8226 0.217 µM | U-251 0.863 µM | IGROV-1 0.244 µM | SF-268 0.593 µM | SNB-19 0.716 µM | A498 0.619 µM | PC-3 1.06 µM | EKVX 0.535 µM | A549 0.509 µM | NCI-H23 0.794 µM | NCI-H522 0.271 µM | COLO 205 0.757 µM | SF-295 0.693 µM | DU-145 0.647 µM | LOX IMVI 0.478 µM | HCT-116 0.208 µM | CAKI-1 0.791 µM | CCRF-CEM 0.383 µM | K562 0.687 µM | OVCAR-3 0.522 µM | OVCAR-8 0.518 µM | SW-620 0.321 µM | SR 0.209 µM | HL-60 0.789 µM | SN12C 0.448 µM
0.597 µM: HCT-15
